Source: article PMC5405701 (ChemMedChem, 2017)

tested on: MCF-7 breast cancer cells; assay: antiproliferative activity, MTT assay, MCF-7; details: Homo sapiens, MCF7, 72 h, read-out: MCF-7 Inhibition (%)

SMILES	inhibition at 10 µM
Oc1ccc(-c2ccc(-c3ccc(O)cc3)[se]2)cc1 [Compound 2a, 2,5-Bis(4-hydroxyphenyl)selenophene]	0%
Cc1cc(O)ccc1-c1ccc(-c2ccc(O)cc2C)[se]1 [Compound 2b, 2,5-Bis(4-hydroxy-2-methylphenyl)selenophene]	3.4%
Cc1cc(-c2ccc(-c3ccc(O)c(C)c3)[se]2)ccc1O [Compound 2c, 2,5-Bis(4-hydroxy-3-methylphenyl)selenophene]	9.3%
Cc1cc(-c2ccc(-c3cc(C)c(O)c(C)c3)[se]2)cc(C)c1O [Compound 2d, 2,5-Bis(4-hydroxy-3,5-dimethylphenyl)selenophene]	0%
Cc1cc(O)cc(C)c1-c1ccc(-c2c(C)cc(O)cc2C)[se]1 [Compound 2e, 2,5-Bis(4-hydroxy-2,6-dimethylphenyl)selenophene]	19.3%
Oc1ccc(-c2ccc(-c3ccc(O)cc3F)[se]2)c(F)c1 [Compound 2f, 2,5-Bis(2-fluoro-4-hydroxyphenyl)selenophene]	10.5%
Oc1ccc(-c2ccc(-c3ccc(O)cc3Cl)[se]2)c(Cl)c1 [Compound 2g, 2,5-Bis(2-chloro-4-hydroxyphenyl)selenophene]	19.6%
Oc1ccc(-c2ccc(-c3ccc(O)c(Cl)c3)[se]2)cc1Cl [Compound 2h, 2,5-Bis(3-chloro-4-hydroxyphenyl)selenophene]	5.3%
Oc1ccc(F)c(-c2ccc(-c3cc(O)ccc3F)[se]2)c1 [Compound 2i, 2,5-Bis(2-fluoro-5-hydroxyphenyl)selenophene]	17.9%
Oc1cc(-c2ccc(-c3ccc(F)c(O)c3)[se]2)ccc1F [Compound 2j, 2,5-Bis(4-fluoro-5-hydroxyphenyl)selenophene]	4.4%
CC/C(=C(\c1ccc(O)cc1)c1ccc(OCCN(C)C)cc1)c1ccccc1 [Compound 4OHT, 4-hydroxytamoxifen, reference compound]	81.7%
Oc1ccc(-c2c[se]cc2-c2ccc(O)cc2)cc1 [Compound 4a, 3,4-Bis(4-hydroxyphenyl)selenophene]	0%

tested on: VERO cells; assay: toxicity to normal cells, MTT assay, VERO; details: not given

SMILES	toxicity to healthy VERO cells
CC/C(=C(\c1ccc(O)cc1)c1ccc(OCCN(C)C)cc1)c1ccccc1 [Compound 4OHT, 4-hydroxytamoxifen, reference compound]	considerable toxicity

target: ERα (Homo sapiens, UniProt P03372); assay: cell-based; type: cell-based; details: not given
Sequence (P03372 whole entry): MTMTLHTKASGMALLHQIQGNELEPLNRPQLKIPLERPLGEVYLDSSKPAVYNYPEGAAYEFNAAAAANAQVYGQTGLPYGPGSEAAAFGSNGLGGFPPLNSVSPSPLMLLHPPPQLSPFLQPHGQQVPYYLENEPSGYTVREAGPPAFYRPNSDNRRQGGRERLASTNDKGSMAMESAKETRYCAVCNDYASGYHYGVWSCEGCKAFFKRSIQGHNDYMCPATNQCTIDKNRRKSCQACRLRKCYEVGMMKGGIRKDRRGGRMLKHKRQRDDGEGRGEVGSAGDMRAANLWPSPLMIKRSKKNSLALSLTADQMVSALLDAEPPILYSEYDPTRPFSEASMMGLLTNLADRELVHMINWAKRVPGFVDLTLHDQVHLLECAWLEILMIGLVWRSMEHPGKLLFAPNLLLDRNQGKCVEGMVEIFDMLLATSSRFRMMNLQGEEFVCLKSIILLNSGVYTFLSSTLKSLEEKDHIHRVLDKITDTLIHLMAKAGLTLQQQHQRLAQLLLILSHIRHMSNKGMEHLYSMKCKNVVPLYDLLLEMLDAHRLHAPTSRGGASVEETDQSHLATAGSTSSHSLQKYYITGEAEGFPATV

SMILES	EC50
Cc1cc(O)ccc1-c1ccc(-c2ccc(O)cc2C)[se]1 [Compound 2b, 2,5-Bis(4-hydroxy-2-methylphenyl)selenophene]	1360 nM
Oc1ccc(-c2ccc(-c3ccc(O)cc3F)[se]2)c(F)c1 [Compound 2f, 2,5-Bis(2-fluoro-4-hydroxyphenyl)selenophene]	230 nM
Oc1ccc(-c2ccc(-c3ccc(O)c(Cl)c3)[se]2)cc1Cl [Compound 2h, 2,5-Bis(3-chloro-4-hydroxyphenyl)selenophene]	40 nM

same assay, conditions: agonist mode

SMILES	efficacy on ERα, times greater than that of estradiol
Cc1cc(O)ccc1-c1ccc(-c2ccc(O)cc2C)[se]1 [Compound 2b, 2,5-Bis(4-hydroxy-2-methylphenyl)selenophene]	1.5 times

same assay, conditions: agonist mode, relative to 2b

SMILES	ERα agonist potency, fold more potent than 2b
Oc1ccc(-c2ccc(-c3ccc(O)cc3F)[se]2)c(F)c1 [Compound 2f, 2,5-Bis(2-fluoro-4-hydroxyphenyl)selenophene]	about 6 fold

same assay, conditions: maximal response as percentage of response to 10^−8 M E2, HEK293T

SMILES	Agonist Mode ERα Eff (%E2)
Oc1ccc(-c2ccc(-c3ccc(O)cc3)[se]2)cc1 [Compound 2a, 2,5-Bis(4-hydroxyphenyl)selenophene]	16 ± 2 %E2
Cc1cc(O)ccc1-c1ccc(-c2ccc(O)cc2C)[se]1 [Compound 2b, 2,5-Bis(4-hydroxy-2-methylphenyl)selenophene]	157 ± 12 %E2
Cc1cc(-c2ccc(-c3ccc(O)c(C)c3)[se]2)ccc1O [Compound 2c, 2,5-Bis(4-hydroxy-3-methylphenyl)selenophene]	33 ± 6 %E2
Cc1cc(-c2ccc(-c3cc(C)c(O)c(C)c3)[se]2)cc(C)c1O [Compound 2d, 2,5-Bis(4-hydroxy-3,5-dimethylphenyl)selenophene]	12 ± 4 %E2
Cc1cc(O)cc(C)c1-c1ccc(-c2c(C)cc(O)cc2C)[se]1 [Compound 2e, 2,5-Bis(4-hydroxy-2,6-dimethylphenyl)selenophene]	−7 ± 3 %E2
Oc1ccc(-c2ccc(-c3ccc(O)cc3F)[se]2)c(F)c1 [Compound 2f, 2,5-Bis(2-fluoro-4-hydroxyphenyl)selenophene]	68 ± 2 %E2
Oc1ccc(-c2ccc(-c3ccc(O)cc3Cl)[se]2)c(Cl)c1 [Compound 2g, 2,5-Bis(2-chloro-4-hydroxyphenyl)selenophene]	44 ± 13 %E2
Oc1ccc(-c2ccc(-c3ccc(O)c(Cl)c3)[se]2)cc1Cl [Compound 2h, 2,5-Bis(3-chloro-4-hydroxyphenyl)selenophene]	49 ± 3 %E2
Oc1ccc(F)c(-c2ccc(-c3cc(O)ccc3F)[se]2)c1 [Compound 2i, 2,5-Bis(2-fluoro-5-hydroxyphenyl)selenophene]	25 ± 8 %E2
Oc1cc(-c2ccc(-c3ccc(F)c(O)c3)[se]2)ccc1F [Compound 2j, 2,5-Bis(4-fluoro-5-hydroxyphenyl)selenophene]	25 ± 8 %E2
Oc1ccc(-c2c[se]cc2-c2ccc(O)cc2)cc1 [Compound 4a, 3,4-Bis(4-hydroxyphenyl)selenophene]	7 ± 3 %E2

same assay, conditions: read-out: Agonist Mode ERα EC50; compound alone up to 10^−5 M, HEK293T

SMILES	EC50
Oc1ccc(-c2ccc(-c3ccc(O)cc3Cl)[se]2)c(Cl)c1 [Compound 2g, 2,5-Bis(2-chloro-4-hydroxyphenyl)selenophene]	1280 nM

same assay, conditions: reporter gene assay, HEK293T

SMILES	transcriptional activity profile on ERα
Oc1ccc(-c2ccc(-c3ccc(O)cc3)[se]2)cc1 [Compound 2a, 2,5-Bis(4-hydroxyphenyl)selenophene]	partial antagonist
Cc1cc(O)ccc1-c1ccc(-c2ccc(O)cc2C)[se]1 [Compound 2b, 2,5-Bis(4-hydroxy-2-methylphenyl)selenophene]	superagonist
Cc1cc(-c2ccc(-c3ccc(O)c(C)c3)[se]2)ccc1O [Compound 2c, 2,5-Bis(4-hydroxy-3-methylphenyl)selenophene]	inactive
Cc1cc(-c2ccc(-c3cc(C)c(O)c(C)c3)[se]2)cc(C)c1O [Compound 2d, 2,5-Bis(4-hydroxy-3,5-dimethylphenyl)selenophene]	inactive
Oc1ccc(-c2ccc(-c3ccc(O)cc3F)[se]2)c(F)c1 [Compound 2f, 2,5-Bis(2-fluoro-4-hydroxyphenyl)selenophene]	full ERα agonist
Oc1ccc(-c2ccc(-c3ccc(O)c(Cl)c3)[se]2)cc1Cl [Compound 2h, 2,5-Bis(3-chloro-4-hydroxyphenyl)selenophene]	partial agonist

target: ERβ (Homo sapiens, UniProt Q92731); assay: cell-based; type: cell-based; details: not given
Sequence (Q92731 whole entry): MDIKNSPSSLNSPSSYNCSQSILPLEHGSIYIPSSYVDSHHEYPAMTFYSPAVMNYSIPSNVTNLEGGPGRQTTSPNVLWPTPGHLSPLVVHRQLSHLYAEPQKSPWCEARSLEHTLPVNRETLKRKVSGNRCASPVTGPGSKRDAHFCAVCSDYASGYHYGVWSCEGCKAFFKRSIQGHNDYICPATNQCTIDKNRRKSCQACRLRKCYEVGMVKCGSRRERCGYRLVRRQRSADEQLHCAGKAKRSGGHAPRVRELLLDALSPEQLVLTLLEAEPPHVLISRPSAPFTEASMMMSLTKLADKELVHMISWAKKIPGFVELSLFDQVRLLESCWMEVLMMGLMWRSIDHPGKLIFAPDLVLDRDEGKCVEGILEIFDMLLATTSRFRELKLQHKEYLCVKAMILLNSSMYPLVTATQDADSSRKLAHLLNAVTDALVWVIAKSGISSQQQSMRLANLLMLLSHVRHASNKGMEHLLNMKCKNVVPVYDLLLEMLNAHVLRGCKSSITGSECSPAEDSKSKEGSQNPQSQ

SMILES	EC50	Agonist Mode ERβ Eff (%E2)	Antagonist Mode ERβ Eff (%E2)
Cc1cc(O)ccc1-c1ccc(-c2ccc(O)cc2C)[se]1 [Compound 2b, 2,5-Bis(4-hydroxy-2-methylphenyl)selenophene]	79 nM		
Cc1cc(O)cc(C)c1-c1ccc(-c2c(C)cc(O)cc2C)[se]1 [Compound 2e, 2,5-Bis(4-hydroxy-2,6-dimethylphenyl)selenophene]	434 nM		
Oc1ccc(-c2ccc(-c3ccc(O)cc3F)[se]2)c(F)c1 [Compound 2f, 2,5-Bis(2-fluoro-4-hydroxyphenyl)selenophene]	170 nM		
Oc1ccc(F)c(-c2ccc(-c3cc(O)ccc3F)[se]2)c1 [Compound 2i, 2,5-Bis(2-fluoro-5-hydroxyphenyl)selenophene]	130 nM		
Oc1cc(-c2ccc(-c3ccc(F)c(O)c3)[se]2)ccc1F [Compound 2j, 2,5-Bis(4-fluoro-5-hydroxyphenyl)selenophene]	150 nM		
CC/C(=C(\c1ccc(O)cc1)c1ccc(OCCN(C)C)cc1)c1ccccc1 [Compound 4OHT, 4-hydroxytamoxifen, reference compound]		−1 ± 1 %E2	−20 ± 2 %E2

same assay, conditions: HEK-293T, 24 h, read-out: Agonist Mode ERβ Eff (%E2)

SMILES	Emax
Oc1ccc(-c2ccc(-c3ccc(O)cc3)[se]2)cc1 [Compound 2a, 2,5-Bis(4-hydroxyphenyl)selenophene]	11 ± 4%
Cc1cc(O)ccc1-c1ccc(-c2ccc(O)cc2C)[se]1 [Compound 2b, 2,5-Bis(4-hydroxy-2-methylphenyl)selenophene]	82 ± 7%
Cc1cc(-c2ccc(-c3ccc(O)c(C)c3)[se]2)ccc1O [Compound 2c, 2,5-Bis(4-hydroxy-3-methylphenyl)selenophene]	24 ± 3%
Cc1cc(-c2ccc(-c3cc(C)c(O)c(C)c3)[se]2)cc(C)c1O [Compound 2d, 2,5-Bis(4-hydroxy-3,5-dimethylphenyl)selenophene]	38 ± 6%
Cc1cc(O)cc(C)c1-c1ccc(-c2c(C)cc(O)cc2C)[se]1 [Compound 2e, 2,5-Bis(4-hydroxy-2,6-dimethylphenyl)selenophene]	60 ± 4%
Oc1ccc(-c2ccc(-c3ccc(O)cc3F)[se]2)c(F)c1 [Compound 2f, 2,5-Bis(2-fluoro-4-hydroxyphenyl)selenophene]	71 ± 1%
Oc1ccc(-c2ccc(-c3ccc(O)cc3Cl)[se]2)c(Cl)c1 [Compound 2g, 2,5-Bis(2-chloro-4-hydroxyphenyl)selenophene]	14 ± 5%
Oc1ccc(-c2ccc(-c3ccc(O)c(Cl)c3)[se]2)cc1Cl [Compound 2h, 2,5-Bis(3-chloro-4-hydroxyphenyl)selenophene]	22 ± 8%
Oc1ccc(F)c(-c2ccc(-c3cc(O)ccc3F)[se]2)c1 [Compound 2i, 2,5-Bis(2-fluoro-5-hydroxyphenyl)selenophene]	55 ± 5%
Oc1cc(-c2ccc(-c3ccc(F)c(O)c3)[se]2)ccc1F [Compound 2j, 2,5-Bis(4-fluoro-5-hydroxyphenyl)selenophene]	42 ± 10%
Oc1ccc(-c2c[se]cc2-c2ccc(O)cc2)cc1 [Compound 4a, 3,4-Bis(4-hydroxyphenyl)selenophene]	16 ± 7%

same assay, conditions: reporter gene assay, HEK293T

SMILES	transcriptional activity profile on ERβ
Oc1ccc(-c2ccc(-c3ccc(O)cc3)[se]2)cc1 [Compound 2a, 2,5-Bis(4-hydroxyphenyl)selenophene]	partial antagonist
Cc1cc(O)ccc1-c1ccc(-c2ccc(O)cc2C)[se]1 [Compound 2b, 2,5-Bis(4-hydroxy-2-methylphenyl)selenophene]	agonist
Cc1cc(-c2ccc(-c3ccc(O)c(C)c3)[se]2)ccc1O [Compound 2c, 2,5-Bis(4-hydroxy-3-methylphenyl)selenophene]	inactive
Cc1cc(-c2ccc(-c3cc(C)c(O)c(C)c3)[se]2)cc(C)c1O [Compound 2d, 2,5-Bis(4-hydroxy-3,5-dimethylphenyl)selenophene]	inactive
Oc1ccc(F)c(-c2ccc(-c3cc(O)ccc3F)[se]2)c1 [Compound 2i, 2,5-Bis(2-fluoro-5-hydroxyphenyl)selenophene]	partial agonist
Oc1cc(-c2ccc(-c3ccc(F)c(O)c3)[se]2)ccc1F [Compound 2j, 2,5-Bis(4-fluoro-5-hydroxyphenyl)selenophene]	partial agonist
Oc1ccc(-c2c[se]cc2-c2ccc(O)cc2)cc1 [Compound 4a, 3,4-Bis(4-hydroxyphenyl)selenophene]	antagonist

target: human ERβ ligand binding domain (LBD) (Homo sapiens, UniProt Q92731); assay: competitive fluorometric; details: ratio of RBA ERβ to RBA ERα
Sequence (Q92731 264-498 limits assumed): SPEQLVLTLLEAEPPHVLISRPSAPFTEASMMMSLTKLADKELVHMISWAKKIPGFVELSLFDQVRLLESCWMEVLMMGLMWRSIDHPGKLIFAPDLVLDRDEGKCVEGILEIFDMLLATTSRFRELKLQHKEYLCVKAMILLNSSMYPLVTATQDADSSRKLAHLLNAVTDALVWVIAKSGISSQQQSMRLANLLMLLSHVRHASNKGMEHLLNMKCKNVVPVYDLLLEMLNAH

SMILES	β/α
Oc1ccc(-c2ccc(-c3ccc(O)cc3)[se]2)cc1 [Compound 2a, 2,5-Bis(4-hydroxyphenyl)selenophene]	4.70
Cc1cc(O)ccc1-c1ccc(-c2ccc(O)cc2C)[se]1 [Compound 2b, 2,5-Bis(4-hydroxy-2-methylphenyl)selenophene]	1.98
Cc1cc(-c2ccc(-c3ccc(O)c(C)c3)[se]2)ccc1O [Compound 2c, 2,5-Bis(4-hydroxy-3-methylphenyl)selenophene]	>94
Cc1cc(-c2ccc(-c3cc(C)c(O)c(C)c3)[se]2)cc(C)c1O [Compound 2d, 2,5-Bis(4-hydroxy-3,5-dimethylphenyl)selenophene]	>121
Cc1cc(O)cc(C)c1-c1ccc(-c2c(C)cc(O)cc2C)[se]1 [Compound 2e, 2,5-Bis(4-hydroxy-2,6-dimethylphenyl)selenophene]	1.00
Oc1ccc(-c2ccc(-c3ccc(O)cc3F)[se]2)c(F)c1 [Compound 2f, 2,5-Bis(2-fluoro-4-hydroxyphenyl)selenophene]	4.11
Oc1ccc(-c2ccc(-c3ccc(O)cc3Cl)[se]2)c(Cl)c1 [Compound 2g, 2,5-Bis(2-chloro-4-hydroxyphenyl)selenophene]	2.07
Oc1ccc(-c2ccc(-c3ccc(O)c(Cl)c3)[se]2)cc1Cl [Compound 2h, 2,5-Bis(3-chloro-4-hydroxyphenyl)selenophene]	5.10
Oc1ccc(F)c(-c2ccc(-c3cc(O)ccc3F)[se]2)c1 [Compound 2i, 2,5-Bis(2-fluoro-5-hydroxyphenyl)selenophene]	0.90
Oc1cc(-c2ccc(-c3ccc(F)c(O)c3)[se]2)ccc1F [Compound 2j, 2,5-Bis(4-fluoro-5-hydroxyphenyl)selenophene]	3.37
Oc1ccc(-c2c[se]cc2-c2ccc(O)cc2)cc1 [Compound 4a, 3,4-Bis(4-hydroxyphenyl)selenophene]	6.28

same assay, conditions: relative to 2a

SMILES	fold better binding to ERβ than 2a
Oc1ccc(-c2ccc(-c3ccc(O)cc3F)[se]2)c(F)c1 [Compound 2f, 2,5-Bis(2-fluoro-4-hydroxyphenyl)selenophene]	8 fold
